Here are results for ten compounds from ChEMBL document CHEMBL1201862, “PubChem BioAssay data set” (2004).

Each structure is given as a SMILES string.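 48-hour exposure; five concentrations; linearly interpolated endpoints. GI50 is the concentration that inhibits growth by half.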 The source made the active and inactive calls. Cut-off read from the data, not from the text of the source: active = GI50 up to about 1.1 µM and inactive = higher.

Among the test systems are 786-0; A498; ACHN; CAKI-1; COLO 205; HCT-15; Hs-578T; MDA-MB-435; MOLT-4; NCI-H460; NCI/ADR-RES; SF-268; SF-539; SK-MEL-2; SK-OV-3; SN12C; TK-10; UO-31; SK-MEL-28; SW-620.
What all share (assay): NCI anticancer screen, dose series, 48 h

Regarding `Cc1c(C#N)c2nnn(-c3ccccc3)c(=O)n2c1-c1ccccc1`, the GI50 with 786-0 was 1.67 µM (inactive); in the assay with A498, 2.1 µM (inactive); in the assay with ACHN it was 8.97 µM (inactive); in the assay with CAKI-1 it was 2.42 µM (inactive); in the assay with COLO 205 it was 0.49 µM (active); in the assay on HCT-15, 1.85 µM. For the same compound, the GI50 was 4.51 µM (inactive) in the assay with Hs-578T; 0.307 µM (active) in the assay with MDA-MB-435; 1.58 µM (inactive) in the assay on MOLT-4; 1.92 µM (inactive) in the assay with NCI-H460; 1.12 µM (active) in the assay with NCI/ADR-RES; 7.85 µM (inactive) in the assay on SF-268. Besides, the GI50 in the assay on SF-539 was 1.17 µM (inactive); in the assay on SK-MEL-2, 4.53 µM (inactive); with SK-OV-3 it was 1.41 µM (inactive); in the assay on SN12C it was 4.65 µM (inactive); in the assay with TK-10, > 59.6 µM (inactive); in the assay on UO-31, 5.75 µM (inactive).

Turning to `CC(C)CCCC(C)[C@H]1CC[C@H]2NCCCC[C@]12C` (stereo partly drawn), the GI50 was 3.78 µM (inactive) with 786-0; 9.84 µM (inactive) in the assay with A498; 2.07 µM (inactive) in the assay on ACHN; 7.05 µM (inactive) with CAKI-1; 1.73 µM (inactive) in the assay on COLO 205; 2.43 µM with HCT-15. The GI50 in the assay on Hs-578T is 6.82 µM (inactive); in the assay on MDA-MB-435 it was 2.01 µM (inactive); in the assay on MOLT-4 it was 2.28 µM (inactive); in the assay on NCI-H460, 2.02 µM (inactive); in the assay on NCI/ADR-RES, 6.71 µM (inactive); in the assay on SF-268, 13.1 µM (inactive). Besides, the GI50 was 5.92 µM (inactive) in the assay with SF-539; 2.37 µM (inactive) in the assay on SK-MEL-28; 2.88 µM (inactive) with SK-MEL-2; 14.3 µM (inactive) with SK-OV-3; 6.24 µM (inactive) with SN12C; 2.61 µM (inactive) with SW-620. Also, the values for the GI50 in the assay with TK-10 and with UO-31 were 4.28 µM (inactive) and 7.36 µM (inactive), respectively.

For the compound `O=C(O)c1ccc(Nc2nc3cc(C(F)(F)F)ccc3n3cccc23)cc1`, the GI50 in the assay with 786-0 was 22.7 µM (inactive); with A498, 42 µM (inactive); with ACHN it was 24.9 µM (inactive); with CAKI-1, 47.3 µM (inactive); with COLO 205, 22.5 µM (inactive); in the assay with HCT-15, 23.3 µM. The GI50 in the assay on Hs-578T is 44.4 µM (inactive); with MDA-MB-435, 34.7 µM (inactive); with MOLT-4, 25.1 µM (inactive); with NCI-H460, 16.1 µM (inactive); in the assay with NCI/ADR-RES, 61.9 µM (inactive); in the assay with SF-268 it was 40.6 µM (inactive). The GI50 in the assay with SF-539 was 23.3 µM (inactive); with SK-MEL-28 it was 46.2 µM (inactive); in the assay with SK-MEL-2 it was 31.3 µM (inactive); in the assay on SK-OV-3, 40.1 µM (inactive); with SW-620, 34.7 µM (inactive); with TK-10 it was 28.2 µM (inactive). In the assay on UO-31, the GI50 is > 100 µM (inactive).

Turning to `COC(=O)C(CCSC)NC(=O)CSc1nnc(COc2ccc(Cl)cc2)n1-c1ccccc1` (stereo not drawn), the GI50 was 16.3 µM (inactive) with 786-0; 21.3 µM (inactive) with A498; 18.1 µM (inactive) in the assay on ACHN; 16.7 µM (inactive) in the assay with CAKI-1; 18.3 µM (inactive) with COLO 205; 18.6 µM in the assay on HCT-15. In addition, the GI50 in the assay with Hs-578T was 21.4 µM (inactive); with MDA-MB-435 it was 18.4 µM (inactive); in the assay with MOLT-4, 13.9 µM (inactive); in the assay on NCI-H460 it was 14.4 µM (inactive); with NCI/ADR-RES, 17.6 µM (inactive); with SF-268, 17.1 µM (inactive). The GI50 in the assay on SF-539 is 18.4 µM (inactive); in the assay on SK-MEL-28 it was 17.4 µM (inactive); in the assay with SK-MEL-2, 16 µM (inactive); in the assay with SK-OV-3 it was 14.5 µM (inactive); with SN12C it was 17.8 µM (inactive); in the assay on SW-620, 21.7 µM (inactive). Also, the GI50 in the assay on TK-10 is 19.1 µM (inactive); in the assay on UO-31, 3.94 µM (inactive).

Take `c1ccc(C2OCC(OC3CCCCO3)CO2)cc1` (stereo not drawn): the GI50 was > 100 µM (inactive) with 786-0; > 100 µM (inactive) in the assay on A498; > 100 µM (inactive) in the assay with ACHN; > 100 µM (inactive) with CAKI-1; > 100 µM (inactive) in the assay on COLO 205; above 100 µM in the assay on HCT-15. The GI50 is 2.36 µM (inactive) with Hs-578T; > 100 µM (inactive) in the assay on MDA-MB-435; 5.24 µM (inactive) with MOLT-4; > 100 µM (inactive) in the assay on NCI-H460; > 100 µM (inactive) in the assay on NCI/ADR-RES; > 100 µM (inactive) in the assay with SF-268. The GI50 in the assay on SF-539, in the assay with SK-MEL-28, in the assay with SK-MEL-2, in the assay on SK-OV-3, in the assay on SN12C and with SW-620 was > 100 µM (inactive) in each case. Moreover, the GI50 in the assay on TK-10 was > 100 µM (inactive); in the assay on UO-31, 75.5 µM (inactive).

Turning to `O=C1Nc2cc([N+](=O)[O-])ccc2C(=O)N2CCC[C@@H]12`, the GI50 in the assay with 786-0 is > 100 µM (inactive); in the assay with A498, > 100 µM (inactive); with ACHN it was > 100 µM (inactive); in the assay on CAKI-1, > 100 µM (inactive); with COLO 205 it was > 100 µM (inactive); with HCT-15, above 100 µM. Moreover, the GI50 in the assay on Hs-578T, in the assay on MDA-MB-435, in the assay with MOLT-4, with NCI-H460, in the assay with NCI/ADR-RES and in the assay on SF-268 was > 100 µM (inactive) each time. Moreover, the GI50 in the assay on SF-539, in the assay with SK-MEL-28, in the assay with SK-MEL-2, in the assay on SK-OV-3, in the assay with SN12C and with SW-620 was > 100 µM (inactive) in each case. Also, the GI50 in the assay on TK-10 and with UO-31 was > 100 µM (inactive) each time.

As for `CCN(CC)CCO/N=C1/C=C2CCC3C(CC[C@@]4(C)C3CC[C@]4(C)O)[C@@]2(C)CC1` (stereo partly drawn), the GI50 in the assay with 786-0 was 3.69 µM (inactive); with A498, 0.195 µM (active); in the assay on ACHN, 5.87 µM (inactive); in the assay on CAKI-1, 4.52 µM (inactive); with COLO 205, 4.16 µM (inactive); in the assay with HCT-15, 2.29 µM. The GI50 was 5.12 µM (inactive) with Hs-578T; 1.69 µM (inactive) in the assay on MDA-MB-435; 1.91 µM (inactive) with MOLT-4; 3.41 µM (inactive) with NCI-H460; 1.96 µM (inactive) in the assay on NCI/ADR-RES; 8.09 µM (inactive) with SF-268. Also, the GI50 was 3.18 µM (inactive) with SF-539; 11.2 µM (inactive) in the assay with SK-MEL-2; 14.3 µM (inactive) in the assay on SK-OV-3; 4.15 µM (inactive) in the assay on SN12C; 15.2 µM (inactive) in the assay with TK-10; 5.41 µM (inactive) in the assay with UO-31.

Turning to `COC(=O)c1c(OC(C)=O)ccc2c1c1cc3ccccc3c(OC(C)=O)c1n2C`, the GI50 in the assay with 786-0 was 11 µM (inactive); in the assay with A498 it was 13.7 µM (inactive); in the assay on ACHN it was 8.09 µM (inactive); in the assay on CAKI-1 it was 11.8 µM (inactive); in the assay with COLO 205 it was 21.8 µM (inactive); in the assay on HCT-15, 22.7 µM. Also, the GI50 is 4.43 µM (inactive) in the assay with Hs-578T; 25.6 µM (inactive) in the assay with MDA-MB-435; 5.75 µM (inactive) with MOLT-4; 10.4 µM (inactive) in the assay with NCI-H460; 34.8 µM (inactive) with NCI/ADR-RES; 27.7 µM (inactive) in the assay on SF-268. The GI50 was 17.5 µM (inactive) in the assay on SF-539; 84.5 µM (inactive) in the assay on SK-MEL-28; 29.7 µM (inactive) in the assay with SK-MEL-2; 6.65 µM (inactive) in the assay on SK-OV-3; 40.6 µM (inactive) in the assay on SN12C; 28.6 µM (inactive) with TK-10. Also, the GI50 with UO-31 was 17.1 µM (inactive).

For `CCC/C=C/C=C/C(=O)OC1C(C)C2(O)C3C=C(C)C(=O)C3CC(COC(C)=O)=CC2C2C(C)(C)C12OC(=O)C(C)C` (stereo not drawn), the GI50 with 786-0 is 9.62 µM (inactive); in the assay on A498, 1.66 µM (inactive); in the assay with ACHN, 9.46 µM (inactive); in the assay on CAKI-1, 0.83 µM (active); in the assay with COLO 205 it was 0.197 µM (active); with Hs-578T, 0.084 µM (active). For the same compound, the GI50 in the assay with MDA-MB-435 was 0.303 µM (active); in the assay with MOLT-4 it was 0.966 µM (active); in the assay on NCI-H460, 3.08 µM (inactive); in the assay on NCI/ADR-RES it was 21.5 µM (inactive); in the assay with SF-268, 13.8 µM (inactive); in the assay on SF-539, 11.7 µM (inactive). In addition, the GI50 is 13 µM (inactive) with SK-MEL-28; 18.4 µM (inactive) with SK-MEL-2; 53.1 µM (inactive) in the assay on SK-OV-3; 11 µM (inactive) in the assay with SN12C; 0.622 µM (active) with SW-620; 13.5 µM (inactive) with TK-10. Besides, in the assay on UO-31, the GI50 is 15.4 µM (inactive).

On to `COc1ccc(C(C)NNC(=O)c2cc[n+]([BH2-]C#N)cc2)cc1F` (stereo not drawn), for which the GI50 was > 100 µM (inactive) in the assay with 786-0; > 100 µM (inactive) in the assay on A498; > 100 µM (inactive) in the assay on ACHN; > 100 µM (inactive) in the assay on CAKI-1; > 100 µM (inactive) with COLO 205; above 100 µM with HCT-15. Further, the GI50 in the assay with Hs-578T, in the assay on MDA-MB-435, with MOLT-4, with NCI-H460, with NCI/ADR-RES and in the assay on SF-268 was > 100 µM (inactive) throughout. For the same compound, the GI50 in the assay with SF-539, in the assay on SK-MEL-28, with SK-MEL-2, in the assay on SK-OV-3, with SN12C and in the assay with SW-620 was > 100 µM (inactive) each time. Also, the GI50 with TK-10 and in the assay on UO-31 was > 100 µM (inactive) in each case.
